{"source": "patent US6033913A", "about": "“Detection of ligand Interaction with polymeric material” (New York University, priority 1997, dated 2000)", "key": {"concanavalin A [1]": {"biological_target": "T1, concanavalin A (Canavalia ensiformis, UniProt P02866)", "assay": "biochemical", "format": "binding", "set-up": "purchased Sigma, St. Louis, Mo", "conditions": "for tension change on removal of divalent cations: buffer 1 exchanged for buffer 2 (without MnCl2 and CaCl2, both removed together)", "from_the_text": "(§1) Referring again to FIGS. 4 and 5: With a sample strip S mounted between the tips of the arms 148, 168, and reference solution L flowing in the well 210, mechanochemical testing of the sample S is ready to begin. Testing itself consists of two stages. In the first (preparative) stage, the strip is stretched until a maximum spring constant of the strip is obtained, and then is allowed to relax under isometric conditions until a constant level of isometric tension is reached. Isometric condition herein means keeping a fixed distance between tips of the arms 148 and 146. In the second stage relaxed strip is brought into contact with ligand solution and ligand-induced changes of the isometric tension and spring constant are measured.\nAt the testing stage, ligand-induced changes in F and κ are measured after an exchange in the flow cell of reference solution for that containing ligands. These parameters by themselves can be used to detect binding. However, they also allow estimation of a practically important parameter: ligand-induced strain, εL=(L-L1)/L0, where L1 is the length of the sample in the ligand solution when no force is applied. This can also be calculated by the formula\nLigands are added at the moment indicated by arrows in FIGS. 12, 14, and 16.\nA strip of concanavalin A, (Sigma, St. Louis, Mo.) was prepared as described in Example 1 for hexokinase, mounted on the arms 148, 146 and extended by 1.2% in buffer 1 (10 mM HEPES buffer, pH=7.5, containing 0.1 M NaCl and 0.1 mM MnCl2 and CaCl2 each). After relaxation solutions with 0.25 mM, 1.25 mM, 5 mM and 10 mM of methyl-α-D-mannopyranoside (MP) on the same buffer 1 were introduced into the well 210 at the moments indicated by arrows in the FIG. 14."}, "concanavalin A [2]": {"biological_target": "T1, concanavalin A", "conditions": "as compared to MP; Biochem. Biophys. Acta, 165:398 (1968); cited from earlier work"}, "yeast hexokinase": {"tested_on": "yeast hexokinase", "assay": "Mechanochemical test of yeast hexokinase film with glucose (isometric tension and compliance)", "format": "binding", "from_the_text": "as §1\nSpring constant is measured by applying small deformations to the strip with an amplitude AL much smaller than (L-L0). These deformations cause tension oscillations with amplitude of ΔF. […]\nAt the testing stage, ligand-induced changes in F and κ are measured after an exchange in the flow cell of reference solution for that containing ligands. […] This can also be calculated by the formula\nA film of yeast hexokinase (Sigma Chemical Company, St. Louis, Mo.) was prepared. […] Changes in elasticity and isometric tension in the sample were measured at the moments indicated by arrows and changes in tension and in modulus resulted from such exchange of solutions were measured. […]"}}}
{"compound": "O=C(O)CN(CCN(CC(=O)O)CC(=O)O)CC(=O)O", "note": "[EDTA]", "values": [{"measurement": "tension change on addition of EDTA", "setting": "concanavalin A [1]", "value": "reduces tension still more"}, {"measurement": "tension change on introduction of EDTA-free buffer 2 after EDTA", "setting": "concanavalin A [1]", "value": "does not affect tension"}]}
{"compound": "OC[C@H]1OC(O)[C@H](O)[C@@H](O)[C@@H]1O", "note": "(stereo partly drawn) [glucose]", "values": [{"measurement": "ability of binding concanavalin A compared to MP", "setting": "concanavalin A [2]", "value": "much lower ability of binding concanavalin A"}, {"measurement": "inverse tension changes against inverse glucose concentration", "setting": "yeast hexokinase; Lineweaver-Burk plot, FIG. 13", "value": "linear relationship"}, {"measurement": "changes in isometric tension and compliance", "setting": "yeast hexokinase; hexokinase film strip, varying glucose concentration, 10 mM HEPES, pH=7.5, 0.1 NaCl, extended 2.8%", "value": "large but reversible changes"}, {"measurement": "tension change on introduction of glucose", "setting": "concanavalin A [1]; 5 mM glucose", "value": "very small tension changes"}]}
{"compound": "CO[C@H]1O[C@H](CO)[C@@H](O)[C@H](O)[C@@H]1O", "note": "[MP, methyl-α-D-mannopyranoside]", "values": [{"measurement": "Kd", "setting": "concanavalin A [1]", "value": 300, "unit": "µM"}, {"measurement": "tension change on ligand addition without divalent cations", "setting": "concanavalin A [1]; 10 mM MP in buffer 2", "value": "reversible drop of tension by ΔF2, similar to the effect, ΔF1, in buffer 1"}, {"measurement": "isometric tension change on ligand addition", "setting": "concanavalin A [1]; buffer 1, 0.25, 1.25, 5 and 10 mM MP", "value": "reduce progressively the isometric tension"}, {"measurement": "reversibility of MP-induced decrease in tension", "setting": "concanavalin A [1]; return to buffer 1", "value": "completely reversible"}]}
{"compound": "[Ca+2].[Cl-].[Cl-]", "note": "[CaC12, CaCl2]", "values": [{"measurement": "tension change on removal of divalent cations", "setting": "concanavalin A [1]", "value": "considerable decrease of tension"}]}
{"compound": "[Cl][Mn][Cl]", "note": "[MnCl2]", "values": [{"measurement": "tension change on removal of divalent cations", "setting": "concanavalin A [1]", "value": "considerable decrease of tension"}]}
